From patent US4474775A, “Pyrazol-4-yl phosphates and insecticidal and acaricidal use” (priority 1979, dated 1984)

Columns and labels:
[1] = test system: Tetranychus urticae; experiment: Effectiveness against Tetranychus urticae (Testing Example 4); type: in vivo; conditions: decrease rate grade, 500 ppm spray on kidney bean plant; for Efficacy grading, 2nd day: 2nd day after spraying; for Efficacy grading, 7th day: 7th day after spraying
Procedure: Testing Example 4: Effectiveness against Tetranychus urticae
A test compound was processed into an emulsifiable concentrate in accordance with the formulation of Example 6, and diluted with water (with Dyne®, spreading agent, as diluted 3000-fold) to prepare a 500 ppm aqueous solution. Ten female adults of Tetranychus urticae) were infected on the seedling of a kidney bean plant water-cultured in a polyethylene cup, and the cups were placed in a glass chamber (28° C.) for 24 hours, followed by spraying 20 ml of the aqueous solution on the kidney bean plant. After the sprayed cup was placed again in the glass chamber, the number of the adults and larvae living on the leaves was counted on the 2nd and 7th days after spraying. The test was repeated twice, and the test results are tabulated in Table 5 in terms of the efficacy grading as determined by calculating a decrease rate by the following equation:
Decrease rate (%)=[(number of mites tested-number of larvae living on the day of inspection)/(number of mites tested)]×100

[2] = Oral acute toxicity in mice (Toxicological Test); conditions: mouse, in vivo, five-week aged ddY-SLC strained male mice
Description: Below tabulated are the oral acute toxicity values obtained with five-week aged, ddY-SLC strained male mice: […]

[3] = test system: Spodoptera litura; experiment: Effectiveness against Spodoptera litura (Testing Example 2); type: in vivo; conditions: second-instar larvae, 500 ppm spray on soybean, 28° C., 24 hours
Procedure: Testing Example 2: Effectiveness against Spodoptera litura
Twenty milliliters of a 500 ppm, water-diluted solution (with Dyne® Takeda Chem. Ind. Ltd., spreading agent, as diluted 3000-fold) of the test compound (the emulsifiable concentrate of Example 6) was sprayed on grown seedlings (10 days after germination) of soybean plant water-cultured in a polyethylene cup by the use of a spray gun (nozzle pressure of 1 kg/cm^2 gauge) in a spraying chamber. 2 hours after spraying, two main leaves of soybean plant were cut off and were placed into two cups (6 cm in diameter and 4 cm in depth), respectively, and ten second-instar larvae of Spodoptera litura were liberated. The cups were left in the room (28° C.) for 24 hours, and the dead larvae were counted.

[4] = test system: Laodelphax striatellus; experiment: Effectiveness against Laodelphax striatellus, adults, dust on paddy-rice plant (Testing Example 1 (b)); type: in vivo; conditions: small brown planthopper, adults on dusted rice, 24 h
Procedure: (§1) Testing Example 1: Effectiveness against Laodelphax striatellus
(b) A test compound was processed into a dust preparation in accordance with the formulation of Example 8, and […] of the preparation was dusted on the potted paddy-rice plant (1/5,000 a) by the Berger Duster method. After dusting, leaves (15 cm long) of the paddy rice were cut off and were placed in a test tube containing 1 ml of water in the bottom, and ten adults of Laodelphax striatellus were released therein. After allowing the test tube to stand in the room (28° C.) for 24 hours, the dead insects were counted.

[5] = test system: Laodelphax striatellus; experiment: Effectiveness against Laodelphax striatellus, third-instar larvae, root dip (Testing Example 1 (a)); type: in vivo; conditions: 40 ppm emulsifiable concentrate dilution, root dip 2 hours, 28° C., 24 hours, read-out: Mortality (I)
Procedure: as §1
(a) A test compound was processed into an emulsifiable concentrate in accordance with the formulation of Example 6, followed by diluting with water to prepare a treating solution of a 40 ppm concentration. 2.5 ml of the treating solution was placed into a test tube (with 1.7 cm of diameter, 4 cm deep), in which three seedlings of a paddy-rice plant (on the 7th day after germination) were allowed to stand so their root portions were dipped into the solution for 2 hours. The seedlings were then transferred into a test tube having 1 ml water placed in the bottom, and ten third-instar larvae of Laodelphax striatellus were released. After allowing the test tube to stand in the room (28° C.) for 24 hours, the dead larvae were counted. The test is repeated twice, and the test results are tabulated, in terms of mortality, in Table 2 (I).

| SMILES | Efficacy grading, 2nd day [1] | Efficacy grading, 7th day [1] | LD50 [2] | mortality at 500 ppm [3] | Mortality (II) [4] | mortality at 40 µg/mL [5] |
| --- | --- | --- | --- | --- | --- | --- |
| CCOP(=S)(OCC)Oc1cnn(-c2ccc(Cl)cc2)c1 [compound 15] | 3 (Not less than 90) | 0 (Not more than 20) | > 300 mg/kg |  |  |  |
| CCCSP(=S)(OCC)Oc1cnn(-c2ccc(Cl)c(Cl)c2)c1 (stereo not shown) [compound 32] | 3 (Not less than 90) | 3 (Not less than 90) | > 300 mg/kg | 100% |  |  |
| CCCSP(=O)(OCC)Oc1cnn(-c2cccc(C(F)(F)F)c2)c1 (stereo not shown) [compound 27] |  |  | 50 to 300 mg/kg | 100% |  |  |
| CCCSP(=O)(OCC)Oc1cnn(-c2ccc(I)cc2)c1 (stereo not shown) [compound 20] | 3 (Not less than 90) | 3 (Not less than 90) | > 300 mg/kg | 100% | 65% | 100% |
| CCCSP(=O)(OCC)Oc1cnn(-c2cc([N+](=O)[O-])ccc2C)c1 (stereo not shown) [compound 39] |  |  | > 300 mg/kg | 100% |  |  |
| CCCSP(=O)(OCC)Oc1cnn(-c2ccc(Cl)cc2F)c1 (stereo not shown) [compound 37] | 3 (Not less than 90) | 3 (Not less than 90) | > 300 mg/kg | 100% | 90% | 100% |
| CCCSP(=S)(OCC)Oc1cnn(-c2cc([N+](=O)[O-])ccc2C)c1 (stereo not shown) [compound 40] |  |  | > 300 mg/kg | 100% |  |  |
| CCCSP(=O)(OCC)Oc1cnn(-c2c(C)cccc2C)c1 (stereo not shown) [compound 36] | 3 (Not less than 90) | 3 (Not less than 90) | > 300 mg/kg | 100% |  |  |
| CCCSP(=S)(OCC)Oc1cnn(-c2ccccc2)c1 (stereo not shown) [Compound No. 5, O-ethyl-O-(1-phenylpyrazol-4-yl)-S-n-propyl phosphorothiolothionate] | 3 (Not less than 90) | 3 (Not less than 90) | > 300 mg/kg | 100% |  |  |
| CCCSP(=S)(OCC)Oc1cnn(-c2ccc(Cl)cc2Cl)c1 (stereo not shown) [compound 30] | 3 (Not less than 90) | 3 (Not less than 90) | > 300 mg/kg | 100% |  |  |
| CCOP(=S)(OCC)Oc1cnn(-c2ccccc2C)c1 [compound 21] | 3 (Not less than 90) | 0 (Not more than 20) | > 300 mg/kg |  |  |  |
| CCCSP(=O)(OCC)Oc1cnn(-c2cccc(Cl)c2)c1 (stereo not shown) [compound 13] | 3 (Not less than 90) | 3 (Not less than 90) | > 300 mg/kg | 100% | 90% | 100% |
| CCCSP(=S)(OCC)Oc1cn(-c2ccccc2)nc1C(=O)OCC (stereo not shown) [compound 8] | 3 (Not less than 90) | 0 (Not more than 20) | > 300 mg/kg | 100% |  |  |
| CCCSP(=S)(OCC)Oc1cnn(-c2cc(Cl)c(Cl)cc2Cl)c1 (stereo not shown) [compound 43] | 3 (Not less than 90) | 3 (Not less than 90) | > 300 mg/kg | 100% | 40% | 85% |
| CCCSP(=S)(OCC)Oc1cnn(-c2ccc(Cl)cc2)c1 (stereo not shown) [Compound No. 17] | 3 (Not less than 90) | 3 (Not less than 90) | > 300 mg/kg | 100% | 35% | 100% |
| CCCSP(=O)(OCC)Oc1cnn(-c2ccc(Br)cc2)c1 (stereo not shown) [Compound No. 9] | 3 (Not less than 90) | 3 (Not less than 90) | > 300 mg/kg | 100% | 75% | 100% |
| CCCSP(=S)(OCC)Oc1cnn(-c2ccc(Br)cc2)c1 (stereo not shown) [compound 10] | 3 (Not less than 90) | 3 (Not less than 90) | > 300 mg/kg | 100% |  |  |
| CCCOP(=S)(OCC)Oc1cn(-c2ccccc2)nc1C(=O)OCC (stereo not shown) [compound 6] |  |  | > 300 mg/kg |  | 70% | 97% |
| CCCSP(=O)(OCC)Oc1cnn(-c2ccc(Cl)cc2C)c1 (stereo not shown) [compound 38] | 3 (Not less than 90) | 3 (Not less than 90) | > 300 mg/kg | 100% |  |  |
| CCCSP(=O)(OCC)Oc1cnn(-c2ccc3c(c2)OCO3)c1 (stereo not shown) [compound 41] | 3 (Not less than 90) | 3 (Not less than 90) | 50 to 300 mg/kg | 100% |  |  |
| CCCSP(=S)(OCC)Oc1cnn(-c2cccc(Cl)c2)c1 (stereo not shown) [compound 14] | 3 (Not less than 90) | 0 (Not more than 20) | > 300 mg/kg | 100% |  |  |
| CCCSP(=S)(OCC)Oc1cnn(-c2ccc(F)cc2)c1 (stereo not shown) [compound 19] | 3 (Not less than 90) | 3 (Not less than 90) | > 300 mg/kg | 100% |  |  |
| CCCSP(=O)(OCC)Oc1cnn(-c2ccc(C)cc2)c1 (stereo not shown) [compound 23] | 3 (Not less than 90) | 3 (Not less than 90) | 50 to 300 mg/kg | 100% |  |  |
| CCOP(=S)(OCC)Oc1cnn(-c2ccccc2Cl)c1 [compound 11] | 3 (Not less than 90) | 0 (Not more than 20) | > 300 mg/kg |  |  |  |
| CCCSP(=O)(OCC)Oc1cnn(-c2ccc(SC)cc2)c1 (stereo not shown) [compound 26] |  |  | > 300 mg/kg | 100% |  |  |
| CCCSP(=S)(OCC)Oc1cnn(-c2cccc(C(F)(F)F)c2)c1 (stereo not shown) [compound 28] |  |  | > 300 mg/kg | 100% |  |  |
| CCCSP(=O)(OCC)Oc1cn(-c2ccccc2)nc1C(=O)OCC (stereo not shown) [compound 7] | 3 (Not less than 90) | 3 (Not less than 90) | > 300 mg/kg | 100% |  |  |
